Patent US9695172B2, “Diazepane derivatives and uses thereof” (Dana-Farber Cancer Institute, Inc., priority 2014, dated 2017)
Like-named read-outs stand apart in the source and are kept apart here.

Experiments:
MV411 = test: Cellular assay, cell viability (ATPlite), MV411; assay type: cell-based; conditions: MV411 cell line
Method: (§1) The compounds of the invention are also evaluated in the BRD4 dependant cell line for the cellular activity to generate cellular IC50 values.
(§2) Cells (e.g., BRD4 dependant cells) were counted and adjusted to 60,000 cells/mL. Using a Biotek EL406, 50 μL of the cells in media were distributed into 384 well white plates from Thermo. Immediately after plating, compounds of the invention in DMSO were distributed to plates. For large plate sets, cells were returned to a 37° C. incubator while not in use. The compounds were added to plates using a 100 nL 384 well pin transfer manifold on a Janus workstation. Stocks were arrayed in 10 point quadruplicate dose response in DMSO stock in 384-well Greiner compound plates. After addition of the compounds, plates were incubated for three days in a 37° C. incubator. Cell viability was read out using ATPlite from Perkin Elmer. Plates were removed from the incubator and brought to room temperature prior to use. Lyophilized powder was resuspended in lysis buffer and diluted 1:2 with DI water. 25 μL of this solution was added to each well using the Biotek liquid handler. Plates were sealed with adherent aluminum seals prior to vortexing and spinning down at 1000 g for 1 minute. Plates were incubated for 15 minutes at room temperature before signal was read on an Envision Plate Reader.

BRDT = BRDT (Homo sapiens (Human), UniProt Q58F21); test: BRDT IC50; assay type: binding
Method: (§3) Assays were performed with minor modifications from the manufacturer's protocol (PerkinElmer, USA). All reagents were diluted in 50 mM HEPES, 150 mM NaCl, 0.1% w/v BSA, and 0.01% w/v Tween 20 at pH 7.5 and allowed to equilibrate to room temperature prior to addition to plates. After addition of Alpha beads to master solutions, all subsequent steps were performed in low light conditions. […] Addition to wells was performed with either a multichannel pipet (for optimization experiments) or a Biotek EL406 liquid handler. After a 1000-rpm spin-down for 1 minute, 100 nL of the solutions of the compounds of the invention from stock plates were added by pin transfer using a Janus Workstation (PerkinElmer, USA). The streptavidin-coated donor beads (25 μg/ml final) were added as with previous solution in a 2×, 10 μL volume. Following this addition, the plates were sealed with foil to block light exposure and to prevent evaporation. The plates were spun down again at 1000 rpm for 1 minute. Next, the plates were incubated in the room with the plate reader (for temperature equilibration) for 1.5 hour prior to reading the assay.

BRD4 = BRD4 (Homo sapiens (Human), UniProt O60885); test: BRD4 IC50 (acetyl-histone binding assay)
Method: as §3

LRRK2 = LRRK2 (Homo sapiens (Human), UniProt Q5S007); test: LRRK2 IC50; assay type: biochemical
MOLM-13 = test: Cellular assay, cell viability (ATPlite), MOLM-13; assay type: cell-based; conditions: MOLM-13 cell line
Method: as §1, §2

797 = test: Cellular assay, cell viability (ATPlite), 797; assay type: cell-based; conditions: 797 cell line
Method: as §1, §2

NOMO-1 = test: Cellular assay, cell viability (ATPlite), NOMO-1; assay type: cell-based; conditions: NOMO-1 cell line
Method: as §1, §2

TF-1 = test: Cellular assay, cell viability (ATPlite), TF-1; assay type: cell-based; conditions: TF-1 cell line
Method: as §1, §2

Kasumi-1 = test: Cellular assay, cell viability (ATPlite), Kasumi-1; assay type: cell-based; conditions: Homo sapiens; Kasumi-1 cell line
Method: as §1, §2

AURKB = AURKB (Homo sapiens (Human), UniProt Q96GD4); test: AURKB IC50; assay type: biochemical
AURKA = AURKA (Homo sapiens (Human), UniProt O14965); test: AURKA IC50; assay type: biochemical
AURKC = AURKC (Homo sapiens (Human), UniProt Q9UQB9); test: AURKC IC50; assay type: biochemical
[1] = first BRD4 value listed for the compound
[2] = second BRD4 value listed for the compound

Chain of LRRK2 (Q5S007 whole entry): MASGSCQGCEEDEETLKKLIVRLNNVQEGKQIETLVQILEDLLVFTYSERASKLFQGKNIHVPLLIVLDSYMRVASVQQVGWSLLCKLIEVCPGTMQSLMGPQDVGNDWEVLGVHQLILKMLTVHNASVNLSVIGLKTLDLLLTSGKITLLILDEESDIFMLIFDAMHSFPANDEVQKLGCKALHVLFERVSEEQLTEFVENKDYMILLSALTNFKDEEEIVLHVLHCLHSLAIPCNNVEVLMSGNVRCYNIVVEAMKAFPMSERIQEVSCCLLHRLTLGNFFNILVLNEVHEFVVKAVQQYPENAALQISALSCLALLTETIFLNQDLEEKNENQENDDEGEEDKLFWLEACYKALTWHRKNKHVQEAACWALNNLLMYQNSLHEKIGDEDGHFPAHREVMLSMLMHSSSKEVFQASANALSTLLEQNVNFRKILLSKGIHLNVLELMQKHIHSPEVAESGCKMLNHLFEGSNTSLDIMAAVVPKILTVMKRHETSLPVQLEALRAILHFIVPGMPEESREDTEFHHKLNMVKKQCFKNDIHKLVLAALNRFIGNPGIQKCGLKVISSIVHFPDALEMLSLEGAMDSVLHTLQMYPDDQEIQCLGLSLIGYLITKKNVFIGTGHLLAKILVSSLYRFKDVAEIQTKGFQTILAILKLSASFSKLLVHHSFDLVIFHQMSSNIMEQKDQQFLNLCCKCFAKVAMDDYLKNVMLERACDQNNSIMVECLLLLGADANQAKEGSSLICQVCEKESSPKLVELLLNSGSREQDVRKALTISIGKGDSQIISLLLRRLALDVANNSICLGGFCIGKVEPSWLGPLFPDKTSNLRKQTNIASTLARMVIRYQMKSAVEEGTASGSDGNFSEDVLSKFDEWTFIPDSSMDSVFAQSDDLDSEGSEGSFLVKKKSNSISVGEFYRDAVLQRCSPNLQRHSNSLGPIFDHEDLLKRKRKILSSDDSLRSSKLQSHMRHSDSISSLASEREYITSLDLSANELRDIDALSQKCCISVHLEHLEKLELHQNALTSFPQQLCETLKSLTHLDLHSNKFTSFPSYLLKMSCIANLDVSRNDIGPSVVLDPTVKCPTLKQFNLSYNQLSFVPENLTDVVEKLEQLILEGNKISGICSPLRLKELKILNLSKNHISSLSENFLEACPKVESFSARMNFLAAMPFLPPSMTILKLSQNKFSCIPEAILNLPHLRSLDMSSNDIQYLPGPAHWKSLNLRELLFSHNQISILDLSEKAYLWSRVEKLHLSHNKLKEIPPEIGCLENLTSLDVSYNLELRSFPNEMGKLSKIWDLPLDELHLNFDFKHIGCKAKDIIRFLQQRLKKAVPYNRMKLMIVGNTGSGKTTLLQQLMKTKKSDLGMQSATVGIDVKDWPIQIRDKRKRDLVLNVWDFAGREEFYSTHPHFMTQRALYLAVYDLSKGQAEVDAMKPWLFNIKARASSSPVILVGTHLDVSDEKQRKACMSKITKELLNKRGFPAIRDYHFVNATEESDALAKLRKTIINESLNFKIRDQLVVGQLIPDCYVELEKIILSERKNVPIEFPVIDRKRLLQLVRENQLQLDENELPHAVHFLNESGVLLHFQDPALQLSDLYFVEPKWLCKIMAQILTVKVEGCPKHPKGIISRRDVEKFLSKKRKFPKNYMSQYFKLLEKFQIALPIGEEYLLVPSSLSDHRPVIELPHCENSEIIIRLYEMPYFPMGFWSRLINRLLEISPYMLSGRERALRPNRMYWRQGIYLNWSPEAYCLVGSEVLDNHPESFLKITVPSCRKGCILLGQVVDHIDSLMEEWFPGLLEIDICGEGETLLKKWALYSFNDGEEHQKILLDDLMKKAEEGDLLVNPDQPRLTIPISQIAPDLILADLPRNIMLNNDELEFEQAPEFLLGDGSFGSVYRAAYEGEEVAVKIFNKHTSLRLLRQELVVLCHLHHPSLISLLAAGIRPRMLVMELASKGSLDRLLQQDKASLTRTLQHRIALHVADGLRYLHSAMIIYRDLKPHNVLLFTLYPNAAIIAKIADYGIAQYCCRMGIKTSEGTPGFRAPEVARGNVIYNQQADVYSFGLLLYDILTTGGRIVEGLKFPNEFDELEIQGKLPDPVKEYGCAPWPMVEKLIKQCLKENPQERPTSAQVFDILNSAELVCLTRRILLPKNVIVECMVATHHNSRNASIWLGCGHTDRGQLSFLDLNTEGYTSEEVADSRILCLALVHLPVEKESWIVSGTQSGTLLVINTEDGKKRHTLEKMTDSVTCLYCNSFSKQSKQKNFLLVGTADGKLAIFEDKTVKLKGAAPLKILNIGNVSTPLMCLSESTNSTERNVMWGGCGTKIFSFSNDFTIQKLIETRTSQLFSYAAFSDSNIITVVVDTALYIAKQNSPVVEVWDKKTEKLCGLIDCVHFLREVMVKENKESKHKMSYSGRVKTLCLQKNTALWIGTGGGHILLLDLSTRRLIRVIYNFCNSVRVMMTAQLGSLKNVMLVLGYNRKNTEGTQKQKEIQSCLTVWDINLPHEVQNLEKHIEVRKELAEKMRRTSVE
Chain of AURKC (Q9UQB9 whole entry): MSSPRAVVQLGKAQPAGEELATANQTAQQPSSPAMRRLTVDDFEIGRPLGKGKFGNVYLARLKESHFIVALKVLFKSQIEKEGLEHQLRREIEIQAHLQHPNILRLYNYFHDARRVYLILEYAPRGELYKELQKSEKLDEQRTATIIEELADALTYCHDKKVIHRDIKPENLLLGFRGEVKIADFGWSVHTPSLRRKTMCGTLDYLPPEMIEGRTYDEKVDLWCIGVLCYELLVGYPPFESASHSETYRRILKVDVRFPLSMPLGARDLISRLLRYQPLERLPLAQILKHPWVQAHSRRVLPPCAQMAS
Chain of AURKB (Q96GD4 whole entry): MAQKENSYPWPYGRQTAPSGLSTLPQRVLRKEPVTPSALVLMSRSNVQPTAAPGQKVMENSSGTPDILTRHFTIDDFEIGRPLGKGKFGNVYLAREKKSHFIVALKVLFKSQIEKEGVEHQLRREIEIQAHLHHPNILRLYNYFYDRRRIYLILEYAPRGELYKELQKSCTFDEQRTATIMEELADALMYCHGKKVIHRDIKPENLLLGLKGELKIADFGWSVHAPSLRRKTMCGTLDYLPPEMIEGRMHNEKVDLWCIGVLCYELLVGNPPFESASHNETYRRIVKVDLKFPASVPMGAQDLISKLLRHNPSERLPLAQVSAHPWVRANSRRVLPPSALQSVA
Chain of AURKA (O14965 whole entry): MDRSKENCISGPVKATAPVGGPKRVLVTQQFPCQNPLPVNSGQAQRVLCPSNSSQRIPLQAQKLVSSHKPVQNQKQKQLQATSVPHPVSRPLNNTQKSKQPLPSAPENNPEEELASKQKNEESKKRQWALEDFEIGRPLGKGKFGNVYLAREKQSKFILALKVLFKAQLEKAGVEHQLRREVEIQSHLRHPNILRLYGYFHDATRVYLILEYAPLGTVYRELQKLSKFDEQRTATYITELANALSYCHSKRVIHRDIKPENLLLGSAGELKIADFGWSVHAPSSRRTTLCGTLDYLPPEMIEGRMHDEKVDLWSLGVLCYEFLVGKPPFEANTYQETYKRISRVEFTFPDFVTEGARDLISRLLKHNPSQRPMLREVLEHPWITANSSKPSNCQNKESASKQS

SMILES | IC50 (MV411; Homo sapiens, MV4-11) [µM] | IC50 (BRDT) [µM] | IC50 (BRD4; [1]) [µM] | IC50 (BRD4; [2]) [µM] | IC50 (LRRK2) [µM] | IC50 (MOLM-13; Homo sapiens) [µM] | IC50 797 [µM] | IC50 (NOMO-1; Homo sapiens) [µM] | TF-1 IC50 (TF-1; result in words) | IC50 (BRD4) [µM] | IC50 (TF-1; Homo sapiens) [µM] | IC50 (Kasumi-1) [µM] | IC50 (MV411) [µM] | IC50 (MOLM-13) [µM] | IC50 (AURKB) [µM] | IC50 (AURKA) [µM] | IC50 (AURKC) [µM] | IC50 (NOMO-1) [µM]
COc1cc(C(=O)N2CCC(N3CCN(C)CC3)CC2)ccc1Nc1ccc2c(n1)N(C)c1ccccc1C(=O)N2C [Compound 3] | 1.42 | 3.68 | 1.37 | 0.813 | > 10 | 2.92 | 2.49 | 7.23 | – | – | – | – | – | – | – | – | – | –
C[C@@H](Oc1cc(-n2cnc3ccc(CN4CCN(C)CC4)cc32)sc1C(N)=O)c1ccccc1C(F)(F)F [GSK461364, reference compound] | – | > 50 | – | – | – | – | – | – | poor convergence | > 50 | – | – | – | – | – | – | – | –
Cc1sc2c(c1C)C(c1ccc(Cl)cc1)=N[C@@H](CC(=O)OC(C)(C)C)c1nnc(C)n1-2 [JQ1, reference compound] | 0.0656 | – | – | – | – | 0.0892 | 0.092 | 0.172 | – | – | 0.109 | 0.0488 | – | – | – | – | – | –
CN1C(=O)c2ccccc2N(C)c2nc(Nc3ccc(S(N)(=O)=O)cc3)ccc21 [Compound 2-221] | – | 5.66 | 2.99 | 3.27 | – | – | 9.28 | – | – | – | – | – | 3.25 | 10.9 | > 10 | > 10 | > 10 | > 20
COc1cc(C(=O)NC2CCN(C)CC2)ccc1Nc1ccc2c(n1)N(C)c1ccccc1C(=O)N2C [Compound 2-227] | – | 5.41 | 2.14 | 1.87 | > 10 | – | 5.76 | – | – | – | – | – | 1.95 | 4.25 | – | – | – | 6.36
